# Measurements: PubChem BioAssay AID328 (DTP/NCI, 2004)
# Several values for one entry are separate records, joined by “and”; a condition that tells them apart may be missing. Equal values may be shown once. Inconclusive results and toxic doses are left out.
# Tested on: BDF1 mice, P388 leukemia ip, median survival T/C
# Test: NCI In Vivo Anticancer Drug Screen. Data for tumor model P388 Leukemia (intraperitoneal) in B6D2F1 (BDF1) mice
# Details: endpoint: median survival time, higher = longer survival
# Outline: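 Antitumour effect was judged in vivo: survival in drug-treated mice, normalised to that of vehicle-dosed controls, gives the reported T/C.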
# [1] = dose: 50.0 mg/kg/injection, schedule: Q04DX003 (ip), vehicle: Klucel (hydroxypropylcellulose) (HPC)
# [2] = dose: 12.5 mg/kg/injection, schedule: Q01DX009 (ip), vehicle: saline with Tween-80
# [3] = dose: 25.0 mg/kg/injection, schedule: Q01DX009 (ip), vehicle: saline with Tween-80
# [4] = dose: 50.0 mg/kg/injection, schedule: Q01DX009 (ip), vehicle: saline with Tween-80
# [5] = dose: 50.0 mg/kg/injection, schedule: Q01DX009 (ip), vehicle: other
# [6] = dose: 100.0 mg/kg/injection, schedule: Q01DX009 (ip), vehicle: other
# [7] = dose: 200.0 mg/kg/injection, schedule: Q01DX009 (ip), vehicle: other
# [8] = dose: 50.0 mg/kg/injection, schedule: Q01DX009 (ip), vehicle: water
# [9] = dose: 50.0 mg/kg/injection, schedule: Q04DX003 (ip), vehicle: water
# [10] = dose: 100.0 mg/kg/injection, schedule: Q01DX009 (ip), vehicle: water
# [11] = dose: 100.0 mg/kg/injection, schedule: Q04DX003 (ip), vehicle: water
# [12] = dose: 200.0 mg/kg/injection, schedule: Q01DX009 (ip), vehicle: water
# [13] = dose: 200.0 mg/kg/injection, schedule: Q04DX003 (ip), vehicle: water
# [14] = dose: 400.0 mg/kg/injection, schedule: Q01DX009 (ip), vehicle: water
# [15] = dose: 400.0 mg/kg/injection, schedule: Q04DX003 (ip), vehicle: water
# [16] = dose: 100.0 mg/kg/injection, schedule: Q01DX009 (ip), vehicle: saline with Tween-80
# [17] = dose: 200.0 mg/kg/injection, schedule: Q01DX009 (ip), vehicle: saline with Tween-80
# [18] = dose: 6.25 mg/kg/injection, schedule: Q01DX009 (ip), vehicle: saline
# [19] = dose: 25.0 mg/kg/injection, schedule: Q04DX003 (ip), vehicle: saline
# [20] = dose: 100.0 mg/kg/injection, schedule: Q04DX003 (ip), vehicle: saline with Tween-80
# [21] = dose: 200.0 mg/kg/injection, schedule: Q04DX003 (ip), vehicle: saline with Tween-80
smiles,measurement,setting,value
CCOC(=O)NC(=S)n1ncnc1N,T/C,"dose: 8.75 mg/kg/injection, schedule: Q01DX009 (ip), vehicle: saline",95 % of control
same,T/C,"dose: 12.5 mg/kg/injection, schedule: Q04DX003 (ip), vehicle: Klucel (hydroxypropylcellulose) (HPC)",110 % of control
same,T/C,"dose: 17.5 mg/kg/injection, schedule: Q01DX009 (ip), vehicle: saline",105 % of control
same,T/C,"dose: 25.0 mg/kg/injection, schedule: Q04DX003 (ip), vehicle: Klucel (hydroxypropylcellulose) (HPC)",100 % of control
same,T/C,"dose: 35.0 mg/kg/injection, schedule: Q01DX009 (ip), vehicle: saline",90 % of control
same,T/C,[1],100 % of control
Clc1ccc(N=C(SSC(Cl)(Cl)Cl)SSC(Cl)(Cl)Cl)cc1,T/C,[2],116 % of control
same,T/C,[3],103 % of control
same,T/C,[4],109 % of control
NC(=S)N/N=C\c1ncccc1OCc1cccc(N)c1,T/C,"dose: 25.0 mg/kg/injection, schedule: Q01DX009 (ip), vehicle: other",165 % of control
same,T/C,[5],150 % of control
same,T/C,[6],163 % of control
same,T/C,[7],182 % of control
Cc1cc(O)c(C(c2ccccn2)c2c(O)cc(C)[nH]c2=O)c(=O)[nH]1,T/C,[2],95 % of control
same,T/C,[3],90 % of control
same,T/C,[4],100 % of control
N=C(N)Sc1cc(O)ccc1O,T/C,"dose: 50.0 mg/kg/injection, schedule: Q01DX009 (ip), vehicle: saline",109 % of control
same,T/C,"dose: 65.0 mg/kg/injection, schedule: Q01DX009 (ip), vehicle: saline",115 % of control
same,T/C,"dose: 100.0 mg/kg/injection, schedule: Q01DX009 (ip), vehicle: saline",115 % of control
Cc1cc(=O)[nH]c(N/N=C/C(C)C)n1,T/C,"dose: 25.0 mg/kg/injection, schedule: Q01DX009 (ip), vehicle: Klucel (hydroxypropylcellulose) (HPC)",92 % of control
same,T/C,"dose: 50.0 mg/kg/injection, schedule: Q01DX009 (ip), vehicle: Klucel (hydroxypropylcellulose) (HPC)",92 % of control
same,T/C,[1],96 % of control
same,T/C,"dose: 100.0 mg/kg/injection, schedule: Q01DX009 (ip), vehicle: Klucel (hydroxypropylcellulose) (HPC)",100 % of control
same,T/C,"dose: 100.0 mg/kg/injection, schedule: Q04DX003 (ip), vehicle: Klucel (hydroxypropylcellulose) (HPC)",88 % of control
same,T/C,"dose: 200.0 mg/kg/injection, schedule: Q04DX003 (ip), vehicle: Klucel (hydroxypropylcellulose) (HPC)",88 % of control
COc1ccc(C(=O)/C=C/c2ccc(OCc3ccccc3)c(OC)c2)cc1OC,T/C,[8],111 % of control
same,T/C,[9],101 % of control
same,T/C,[10],114 % of control
same,T/C,[11],94 % of control
same,T/C,[12],104 % of control
same,T/C,[13],102 % of control
same,T/C,[14],114 % of control
same,T/C,[15],100 % of control
Cc1nc2ccccc2c(=O)n1-c1nccs1,T/C,"dose: 50.0 mg/kg/injection, schedule: Q01DX005 (ip), vehicle: saline with Tween-80",102 % of control
same,T/C,"dose: 100.0 mg/kg/injection, schedule: Q01DX005 (ip), vehicle: saline with Tween-80",107 % of control
same,T/C,"dose: 200.0 mg/kg/injection, schedule: Q01DX005 (ip), vehicle: saline with Tween-80",102 % of control
CCCCCCC(=O)/C=C/c1ccc(Cl)cc1Cl,T/C,[16],109 % of control
same,T/C,[17],94 % of control
same,T/C,"dose: 400.0 mg/kg/injection, schedule: Q01DX009 (ip), vehicle: saline with Tween-80",98 % of control
CC(=O)OC1CC2CCCCC21 (stereo not given),T/C,[5],116 % of control
same,T/C,[6],105 % of control
same,T/C,[7],100 % of control
N[C@H](C(=O)O)[C@@H]1CC(Cl)=NO1,T/C,"dose: 0.39 mg/kg/injection, schedule: Q01DX009 (ip), vehicle: saline",150 % of control
same,T/C,"dose: 0.78 mg/kg/injection, schedule: Q01DX009 (ip), vehicle: saline",175 % of control
same,T/C,"dose: 1.0 mg/kg/injection, schedule: Q01DX009 (ip), vehicle: saline",183 % of control
same,T/C,"dose: 1.56 mg/kg/injection, schedule: Q01DX009 (ip), vehicle: saline",175 % of control
same,T/C,"dose: 2.0 mg/kg/injection, schedule: Q01DX009 (ip), vehicle: saline",193 % of control
same,T/C,"dose: 3.12 mg/kg/injection, schedule: Q01DX009 (ip), vehicle: saline",95 % of control
same,T/C,"dose: 3.12 mg/kg/injection, schedule: Q04DX003 (ip), vehicle: saline",113 % of control
same,T/C,"dose: 4.0 mg/kg/injection, schedule: Q01DX009 (ip), vehicle: saline",220 % of control
same,T/C,[18],90 % of control
same,T/C,"dose: 8.0 mg/kg/injection, schedule: Q01DX009 (ip), vehicle: saline",250 % of control
same,T/C,"dose: 12.5 mg/kg/injection, schedule: Q04DX003 (ip), vehicle: saline",174 % of control
same,T/C,"dose: 16.0 mg/kg/injection, schedule: Q01DX009 (ip), vehicle: saline",118 % of control
same,T/C,"dose: 21.6 mg/kg/injection, schedule: Q04DX003 (ip), vehicle: saline",169 % of control
same,T/C,[19],220 % of control
same,T/C,"dose: 32.0 mg/kg/injection, schedule: Q01DX009 (ip), vehicle: saline",91 % of control
same,T/C,"dose: 50.0 mg/kg/injection, schedule: Q04DX003 (ip), vehicle: saline",231 % of control
same,T/C,[9],117 % of control
same,T/C,"dose: 100.0 mg/kg/injection, schedule: Q04DX003 (ip), vehicle: saline",101 % of control
same,T/C,[13],209 % of control
same,T/C,[15],196 % of control
O=[N+]([O-])c1ccc(NS(=O)(=O)c2cc(Cl)ccc2Cl)c(C(F)(F)F)c1,T/C,[4],96 % of control
same,T/C,[16],100 % of control
CCN1CC2(CO)CCC(OC)C34C5CC6C(OC)CC(O)(C5C6OC)C(O)(C(OC)C23)C14 (stereo not given),T/C,[4],100 % of control
same,T/C,[16],103 % of control
same,T/C,[17],100 % of control
O=C([O][Hg][CH2]C1COC([CH2][Hg][O]C(=O)c2ccccc2)CO1)c1ccccc1 (stereo not given),T/C,[20],113 % of control
Nc1ccn(CC(=O)c2cccs2)c(=O)n1,T/C,[3],100 % of control
same,T/C,[4],115 % of control
same,T/C,[16],100 % of control
same,T/C,[20],90 % of control
same,T/C,[21],95 % of control
NC(C(=O)O)c1cccc(Cl)c1 (stereo not given),T/C,"dose: 100.0 mg/kg/injection, schedule: Q01DX001 (ip), vehicle: Klucel (hydroxypropylcellulose) (HPC)",91 % of control
same,T/C,"dose: 200.0 mg/kg/injection, schedule: Q01DX001 (ip), vehicle: Klucel (hydroxypropylcellulose) (HPC)",108 % of control
same,T/C,"dose: 400.0 mg/kg/injection, schedule: Q01DX001 (ip), vehicle: Klucel (hydroxypropylcellulose) (HPC)",95 % of control
Cc1noc(N)c1N,T/C,[10],110 % of control
same,T/C,[11],109 % of control
same,T/C,[12],110 % of control and 117 % of control
same,T/C,[13],100 % of control
same,T/C,[14],106 % of control
same,T/C,[15],100 % of control
same,T/C,"dose: 600.0 mg/kg/injection, schedule: Q01DX009 (ip), vehicle: water",122 % of control
Cl,T/C,"dose: 0.62 mg/kg/injection, schedule: Q01DX009 (ip), vehicle: water",100 % of control
same,T/C,"dose: 1.25 mg/kg/injection, schedule: Q01DX009 (ip), vehicle: water",90 % of control
same,T/C,"dose: 2.5 mg/kg/injection, schedule: Q01DX009 (ip), vehicle: water",104 % of control
same,T/C,"dose: 5.0 mg/kg/injection, schedule: Q01DX009 (ip), vehicle: water",95 % of control
same,T/C,"dose: 10.0 mg/kg/injection, schedule: Q01DX009 (ip), vehicle: water",100 % of control
same,T/C,"dose: 20.0 mg/kg/injection, schedule: Q01DX009 (ip), vehicle: water",100 % of control
same,T/C,"dose: 25.0 mg/kg/injection, schedule: Q01DX009 (ip), vehicle: water",90 % of control
same,T/C,[8],104 % of control
O=Cc1cc(O)ccc1[N+](=O)[O-],T/C,[4],95 % of control
same,T/C,[16],104 % of control
same,T/C,[20],104 % of control
same,T/C,[17],100 % of control
same,T/C,[21],90 % of control
Brc1ccc(C[n+]2ccccc2)cc1,T/C,[18],91 % of control
same,T/C,"dose: 12.5 mg/kg/injection, schedule: Q01DX009 (ip), vehicle: saline",87 % of control
same,T/C,"dose: 25.0 mg/kg/injection, schedule: Q01DX009 (ip), vehicle: saline",95 % of control
same,T/C,[19],100 % of control
